Key:
Plasmodium falciparum [1] = assay: Antimalarial activity against Plasmodium falciparum C235 containing mdr1 transporter gene assessed as growth inhibition after 72 hrs by SYBR Green 1-based fluorescence assay; assay type: functional, organism-based; details: C235, MDR1, 72 h
[2] = Apparent permeability across apical to basolateral side in human Caco2/TC7 cells after 2 hrs; assay type: ADME, cell-based; details: Caco-2
Plasmodium falciparum [3] = assay: Antimalarial activity against Plasmodium falciparum D6 assessed as growth inhibition after 72 hrs by SYBR Green 1-based fluorescence assay; assay type: functional, organism-based; details: D6, 72 h
Erythrocyte [4] = assay: Reduction of glutathione level in Wistar rat RBC at 25 ug/mL measured at 30 mins relative to untreated control; assay type: functional; design: scale not given: the % may be the effect or the level left
[5] = Drug uptake in Wistar rat RBC at 25 ug/mL up to 2 hrs; assay type: ADME, cell-based; details: erythrocyte
Erythrocyte [6] = assay: Reduction of glutathione level in Wistar rat RBC at 25 ug/mL measured at 15 mins relative to untreated control; assay type: functional; design: scale not given: the % may be the effect or the level left
Erythrocyte [7] = assay: Reduction of glutathione level in Wistar rat RBC at 25 ug/mL measured at 120 mins relative to untreated control; assay type: functional; design: scale not given: the % may be the effect or the level left
[8] = Apparent permeability across apical to basolateral side in human Caco2/TC7 cells at 50 uM after 2 hrs; assay type: ADME, cell-based; details: Caco-2
Erythrocyte [9] = assay: Reduction of glutathione level in Wistar rat RBC at 25 ug/mL measured at 60 mins relative to untreated control; assay type: functional; design: scale not given: the % may be the effect or the level left
Erythrocyte [10] = assay: Reduction of glutathione level in Wistar rat RBC at 25 ug/mL measured at 5 mins relative to untreated control; assay type: functional; design: scale not given: the % may be the effect or the level left
[11] = Drug uptake in Wistar rat RBC at 25 ug/mL; assay type: ADME, cell-based; details: erythrocyte
Erythrocyte [12] = assay: Reduction of glutathione level in Wistar rat RBC at 25 ug/mL measured at 90 mins relative to untreated control; assay type: functional; design: scale not given: the % may be the effect or the level left
[13] = Metabolic stability in human Caco2/TC7 cells at 50 uM up to 2 hrs; assay type: ADME, cell-based; details: caco-2, 2 h
Plasmodium falciparum [14] = assay: Selectivity ratio of IC50 for Plasmodium falciparum C235 to IC50 for Plasmodium falciparum D6; assay type: functional

Structure (SMILES) | IC50 (Plasmodium falciparum [1]) | Papp A→B at 2 h [2] | IC50 (Plasmodium falciparum [3]) | Activity (Erythrocyte [4]) | Drug uptake [5] | Activity (Erythrocyte [6]) | Activity (Erythrocyte [7]) | Papp A→B at 2 h, 50 µM [8] | Activity (Erythrocyte [9]) | Activity (Erythrocyte [10]) | Drug uptake [11] | Activity (Erythrocyte [12]) | Stability [13] | Ratio IC50 (Plasmodium falciparum [14])
O[C@@H](c1cc(C(F)(F)F)nc2c(C(F)(F)F)cccc12)[C@H]1CCCCN1 [(S,R)-MEFLOQUINE] | 50 nM |  |  |  |  |  |  |  |  |  |  |  |  | 
COCCc1ccc(OCC(O)CNC(C)C)cc1 (stereo not given) [METOPROLOL] |  | 29.9 ×10⁻⁶ cm/s |  |  |  |  |  |  |  |  |  |  |  | 
Cl.O=C1/C(=C/c2ccc(Cl)cc2)CN(C(=O)c2ccc(OCCN3CCOCC3)cc2)C/C1=C\c1ccc(Cl)cc1 | 1970 nM |  | 600 nM | 12.9% | 80% | 12.3% | 10.9% | 1.2 ×10⁻⁶ cm/s | 8.95% | 12.6% | 75% | 7.51% | Stable | 3.3

From ChEMBL document CHEMBL2321756, “From a cytotoxic agent to the discovery of a novel antimalarial agent” (Bioorg Med Chem Lett, 2013)
